Results as given in publication PMC9820345, “Metal Complexes of a 5-Nitro-8-Hydroxyquinoline-Proline Hybrid with Enhanced Water Solubility Targeting Multidrug Resistant Cancer Cells” (International Journal of Molecular Sciences, 2022).
Where two headings read alike, the source gives them in different places.

Columns and labels:
[1] = test system: MES-SA; test: In vitro cytotoxicity, MES-SA cells (fluorescent protein readout); assay type: cell-based, human; settings: 144 h exposure
Text: (§1) Cell lines: all cell culture reagents were obtained from Sigma-Aldrich; plasticware was purchased from Sarstedt (Nümbrecht, Germany); Human colon Colo205 (chemo-sensitive, ATCC-CCL-222) and Colo320 (Pgp/MDR1-expressing, doxorubicin-resistant, ATCC-CCL-220.1) adenocarcinoma cell lines were purchased from LGC Promochem, Teddington, UK; MES-SA and MES-SA/Dx5 uterine sarcoma cell lines were obtained from ATCC, where they were characterized by DNA fingerprinting. The expression of the Pgp efflux pump of MES-SA/Dx5 was proven by Western blot analysis in our former report, and was also reported for the Colo320 cells. The MES-SA and MES-SA/Dx5 cells used in this study were previously engineered to express the fluorescent proteins mCherry and eGFP, respectively, by lentiviral transduction.
(§2) MES-SA cell lines were maintained in DMEM, supplemented with 10% fetal bovine serum, 5 mmol/L glutamine, and 50 units/mL penicillin and streptomycin. Cells were tested and resulted negative for mycoplasma contamination with the MycoAlert mycoplasma detection Kit (Lonza Group, Basel, Switzerland). One week prior to the cytotoxicity assays, Dx5 eGFP cells were selected in 500 nM doxorubicin for one passage to ensure the overexpression of P-glycoprotein.
(§3) Cytotoxicity assays: The tested compounds were dissolved in PBS buffer to prepare 5 mM stock solutions, which were diluted in complete culture medium.
(§4) In the case of the MES-SA and MES-SA/Dx5 cells, cell suspensions of the fluorescent cell lines were pre-mixed in a 1:1 ratio and seeded in 20 µL medium in a density of 2500 cells/well (1250 cells/well each) in a 384-well plate. After an overnight incubation, a serial dilution of the compounds was added to the plate in a final volume of 60 µL. The P-gp inhibitor tariquidar was added to the cells 15 min prior to the test compounds. After 144 h of incubation, plates were measured for the fluorescent intensity of mCherry (EX/EM: 585 nm/610 nm) and eGFP (EX/EM: 485 nm/510 nm). Cell seeding, aspiration of medium, and addition of drugs were performed by a Hamilton StarLet automated liquid handling robot.
(§5) Inhibition of the cell growth (expressed as IC50: inhibitory concentration that reduces by 50% the growth of the cells exposed to the tested compounds) was determined from the sigmoid curve where 100 − ((ODsample − ODmedium control)/(ODcell control − ODmedium control)) × 100 values were plotted against the logarithm of compound concentrations. Curves for the data obtained on Colo205 and Colo320 cells were fitted by GraphPad Prism software (2021, Graphpad Software, version 7.00, San Diego, CA, USA) using the sigmoidal dose–response model (comparing variable and fixed slopes). From the MES-SA cell data, the IC50 values were calculated by our custom program, written by J. Sessler in C#. The p values were calculated by Student’s t-test. The IC50 values were always obtained from at least three independent experiments.

[2] = test system: Colo320; test: In vitro cytotoxicity, Colo320 cells (MTT); assay type: cell-based, human; settings: for IC50: 72 h exposure; for Selectivity ratio IC50 (Colo205)/IC50 (Colo320): calculated from IC50 values in Table 4
Text: as §1
(§6) The colon adenocarcinoma cells were cultured in RPMI 1640 medium supplemented with 10% heat-inactivated fetal bovine serum, 2 mM L-glutamine, 1 mM sodium pyruvate, and 100 mM HEPES. The cells were incubated at 37 °C, in a 5% CO2, 95% air atmosphere.
as §3
(§7) In the case of the Colo205 and Colo320 cells, two-fold serial dilutions were prepared in 100 μL medium. The semi-adherent colon adenocarcinoma cells were treated with Trypsin-Versene (EDTA) solution. They were adjusted to a density of 1 × 10^4 cells in 100 μL of RPMI 1640 medium and were added to each well, with the exception of the medium control wells. The final volume of the wells containing compounds and cells was 200 μL. The plates containing Colo205 and Colo320 cells were incubated at 37 °C for 72 h; at the end of the incubation period, 20 μL of 3-(4,5-dimethyl-2-thiazolyl)-2,5-diphenyl-2H-tetrazolium bromide (MTT) solution (from a stock solution of 5 mg/mL) was added to each well. After incubation at 37 °C for 4 h, 100 μL of sodium dodecyl sulfate (SDS) solution (10% in 0.01 M HCI) was added to each well, and the plates were further incubated at 37 °C overnight. Cell growth was determined by measuring the optical density (OD) at 540/630 nm with a Multiskan EX plate reader (Thermo Labsystems, Cheshire, WA, USA).
as §5

[3] = test system: Escherichia coli (ATCC 25922); test: Antibacterial effect, MIC determination; assay type: cell-based; settings: visual inspection, read-out: minimum inhibitory concentration (MIC)
Description: (§8) Escherichia coli (ATCC 25922), Klebsiella pneumoniae (ATCC 49618) were used as Gram-negative strains; and Staphylococcus aureus (ATCC 25923, methicillin-resistant (MRSA)), and Enterococcus faecalis (ATCC 29212) strains were applied as Gram-positive bacterial cultures in the experiments. MIC values of the complexes were determined in 96-well plates based on the Clinical and Laboratory Standard Institute guidelines (CLSI guidelines). The stock solutions of the compounds (dissolved in PBS buffer using 5 mM concentration) were diluted in 100 μL of Mueller Hinton Broth. Then, 10^−4 dilution of an overnight bacterial culture in 100 μL of medium was added to each well, with the exception of the medium control wells.

[4] = test system: Staphylococcus aureus (ATCC 25923, methicillin-resistant (MRSA)); test: Antibacterial effect, MIC determination; assay type: cell-based; settings: methicillin-resistant S. aureus (MRSA), 18 h, visual inspection, read-out: minimum inhibitory concentration (MIC)
Description: as §8

[5] = test system: Klebsiella pneumoniae (ATCC 49618); test: Antibacterial effect, MIC determination; assay type: cell-based; settings: visual inspection, read-out: minimum inhibitory concentration (MIC)
Description: as §8

[6] = test system: Enterococcus faecalis (ATCC 29212); test: Antibacterial effect, MIC determination; assay type: cell-based; settings: visual inspection, read-out: minimum inhibitory concentration (MIC)
Description: as §8

[7] = test system: Colo205; test: In vitro cytotoxicity, Colo205 cells (MTT); assay type: cell-based, human; settings: 72 h exposure
Text: as §1, §6, §3, §7
as §5, with “From the MES-SA cell data, the IC50 values were calculated by our custom program, written by J. Sessler in C#. The p values were calculated by Student’s t-test. The IC50 values were always obtained from at least three independent experiments.” left out

[8] = test system: MES-SA/Dx5; test: In vitro cytotoxicity, MES-SA/Dx5 cells (fluorescent protein readout); assay type: cell-based, human; settings: for IC50: 144 h exposure; for Selectivity ratio IC50 (MES-SA)/IC50 (MES-SA/Dx5): calculated from IC50 values in Table 4
Text: as §1, §2, §3, §4, §5

| SMILES | IC50 [1] | IC50 [2] | Selectivity ratio IC50 (Colo205)/IC50 (Colo320) [2] | MIC ([3]; 18 h) | MIC [4] | MIC ([5]; 18 h) | MIC ([6]; 18 h) | IC50 [7] | IC50 [8] | Selectivity ratio IC50 (MES-SA)/IC50 (MES-SA/Dx5) [8] | IC50 ([1]; Homo sapiens, MES-SA) | IC50 ([2]; Homo sapiens, COLO 320) | MIC ([3]; ATCC25922, 18 h) | MIC ([4]; Staphylococcus aureus) | MIC ([5]; ATCC49618, 18 h) | MIC ([6]; ATCC29212, 18 h) | IC50 ([7]; Homo sapiens, COLO 205) | IC50 ([8]; Homo sapiens, MES-SA/Dx5) |
| --- | --- | --- | --- | --- | --- | --- | --- | --- | --- | --- | --- | --- | --- | --- | --- | --- | --- | --- |
| CC1=C(C)[C](C)([Rh]([Cl])[O]c2c(C[NH+]3CCC[C@H]3C(=O)O)cc([N+](=O)[O-])c3cccnc23)C(C)=C1C.[Cl-] [RhCp*-HQNO2-L-Pro, [RhCp*(HQNO2-L-Pro)Cl]Cl] | 167 ± 38 µM | 29.8 ± 0.2 µM | 1.16 | > 100 µM | 50 µM | > 100 µM | > 100 µM | 35 ± 1 µM | 106 ± 8 µM | 1.58 |  |  |  |  |  |  |  |  |
| O=C(O)[C@@H]1CCCN1Cc1cc([N+](=O)[O-])c2cccnc2c1O [HQNO2-L-Pro, (2S)-1-((8-hydroxy-5-nitroquinolin-7-yl)methyl)pyrrolidin-1-ium-2-carboxylate] |  |  | 1.06 |  |  |  |  |  |  | 2.33 | 226 ± 17 µM | 32.4 ± 0.4 µM | > 100 µM | > 100 µM | > 100 µM | > 100 µM | 34 ± 1 µM | 97 ± 29 µM |
| Cc1ccc(C(C)C)cc1.O=C(O)[C@@H]1CCC[NH+]1Cc1cc([N+](=O)[O-])c2ccc[n+]3c2c1[O][Ru-]3[Cl].[Cl-] [RuCym-HQNO2-L-Pro, [RuCym(HQNO2-L-Pro)Cl]Cl] | 166 ± 37 µM | > 100 µM |  | > 100 µM | > 100 µM | > 100 µM | > 100 µM | > 100 µM | > 400 µM | ≤ 0.42 |  |  |  |  |  |  |  |  |
